# Laboratory results as given in the supplement of paper PMC10307832.
# Experiments:
# Test in all cases: relative viability (nuclei count vs DMSO), 5 days (fraction); higher = more cells survive
# [1] = compound: C1/C(=C\C2=CC=CS2)/C(=O)/C(=C/C3=CC=CS3)/C1 + C[C@]1(O)C[C@@H](c2nc(-c3ccc4ccc(-c5ccccc5)nc4c3)c3c(N)nccn32)C1 [Linsitinib] (partner 1 µM)
# Procedure, shortened: (§1)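 Cells from lung cancer lines were seeded into 1536-well plates and, one day later, dosed by pin tool. Treatments were either a single drug or a fixed dose of an anchor drug with five library-drug doses (not always all listed) in √10 steps. After 5 days, nuclei were stained in a one-step fixation (final 0.05% Triton X-100, 1% formaldehyde, 1 ug/ml Hoechst) and counted on 4× images, and relative viability is the treated-to-vehicle nuclei ratio, as the median of duplicate plates.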
# TPCA-1 + Foretinib = compound: C1=CC(=CC=C1C2=CC(=C(S2)NC(=O)N)C(=O)N)F [TPCA-1] + COc1cc2c(Oc3ccc(NC(=O)C4(C(=O)Nc5ccc(F)cc5)CC4)cc3F)ccnc2cc1OCCCN1CCOCC1 [Foretinib] (partner 0.25 µM)
# Procedure, shortened: as §1
# TPCA-1 + Decitabine = compound: C1=CC(=CC=C1C2=CC(=C(S2)NC(=O)N)C(=O)N)F [TPCA-1] + Nc1ncn([C@H]2C[C@H](O)[C@@H](CO)O2)c(=O)n1 [Decitabine] (partner 2 µM)
# Procedure, shortened: as §1
# Lestaurtinib + Alpelisib = compound: C[C@]12O[C@H](C[C@]1(O)CO)n1c3ccccc3c3c4c(c5c6ccccc6n2c5c31)CNC4=O [Lestaurtinib] + Cc1nc(NC(=O)N2CCC[C@H]2C(N)=O)sc1-c1ccnc(C(C)(C)C(F)(F)F)c1 [Alpelisib] (partner 2 µM)
# Procedure, shortened: as §1
Cell Line,relative viability ([1]; first compound 0.2 µM),relative viability ([1]; first compound 0.6325 µM),relative viability ([1]; first compound 2 µM),relative viability ([1]; first compound 6.325 µM),relative viability ([1]; first compound 20 µM),relative viability (TPCA-1 + Foretinib; first compound 0.04 µM),relative viability (TPCA-1 + Foretinib; first compound 0.1265 µM),relative viability (TPCA-1 + Foretinib; first compound 0.4 µM),relative viability (TPCA-1 + Foretinib; first compound 1.265 µM),relative viability (TPCA-1 + Foretinib; first compound 4 µM),relative viability (TPCA-1 + Decitabine; first compound 0.04 µM),relative viability (TPCA-1 + Decitabine; first compound 0.1265 µM),relative viability (TPCA-1 + Decitabine; first compound 0.4 µM),relative viability (TPCA-1 + Decitabine; first compound 1.265 µM),relative viability (TPCA-1 + Decitabine; first compound 4 µM),relative viability (Lestaurtinib + Alpelisib; first compound 0.005 µM),relative viability (Lestaurtinib + Alpelisib; first compound 0.01581 µM),relative viability (Lestaurtinib + Alpelisib; first compound 0.05 µM),relative viability (Lestaurtinib + Alpelisib; first compound 0.1581 µM),relative viability (Lestaurtinib + Alpelisib; first compound 0.5 µM)
NCI-H727,0.263,0.302,0.314,0.228,0.263,1.01,0.922,0.738,0.788,0.829,0.946,0.787,0.943,0.788,0.576,0.627,0.481,0.554,0.49,0.155
HARA,0.968,1.06,0.898,0.242,0.902,0.874,0.907,0.887,0.893,0.681,0.576,0.54,0.844,0.462,0.492,0.769,0.825,0.639,0.487,0.176
NCI-H2228,0.764,0.628,1.16,0.563,0.631,0.899,0.677,0.842,0.717,0.722,,,,,,0.806,0.648,0.582,0.32,0.205
LCLC-97TM1,0.183,0.169,0.187,0.158,0.197,1.11,0.877,0.94,0.633,0.587,0.274,0.23,0.214,0.247,0.243,0.256,0.189,0.171,0.138,0.148
CAL-12T,0.837,0.964,0.764,0.744,0.92,1.21,0.989,1.15,1.08,0.716,,,,,,1.12,1.3,1.19,0.502,0.385
NCI-H2342,,,,,,1.03,0.998,1.15,0.992,0.962,0.71,0.653,0.766,0.712,0.883,,,,,
SW 900,,,,,,0.894,0.71,0.841,0.958,0.789,,,0.407,0.421,0.391,,,,,
IA-LM,0.623,0.895,0.623,0.616,0.523,1.14,1.02,1.09,1.01,0.885,,,,,,0.967,0.964,1.13,1.05,0.28
NCI-H1792,0.523,0.618,0.617,,0.451,,,,,,0.674,0.465,0.551,0.474,0.307,0.858,0.875,0.516,0.429,0.209
EBC-1,0.904,0.973,0.887,0.801,0.942,0.0976,0.0894,0.103,0.125,0.13,,,,,,0.851,0.948,0.658,0.624,0.298
NCI-H1650,,,,,,1.15,,1.36,1.14,0.858,0.424,0.42,0.433,0.382,0.397,,,,,
NCI-H1563,1.43,1.16,1.28,0.893,1.08,1.03,0.944,0.96,0.991,1.02,,,,,,0.88,0.954,0.944,0.865,0.813
NCI-H1648,,,,,,,,,,,0.605,0.578,0.495,0.519,0.569,,,,,
NCI-H1299,1.02,1.04,0.933,0.789,0.956,1.07,1.07,1.03,1.09,1.07,,,,,,1.14,1.05,0.559,0.614,0.713
NCI-H1623,,,,,,0.824,0.757,0.937,0.973,0.644,,,,,,,,,,
NCI-H1703,1.42,0.978,0.633,0.887,0.725,0.308,0.33,0.315,,0.302,,,,,,0.293,0.288,0.283,0.2,0.117
NCI-H2170,,,,,,1.08,0.985,0.998,0.986,0.682,0.493,0.433,0.444,0.453,0.385,0.698,0.707,0.592,0.699,0.404
HCC-44,0.633,0.748,0.693,0.592,0.655,,,,,,1.1,0.841,0.908,0.879,0.887,0.782,0.973,0.644,0.834,0.469
NCI-H522,,,,,,,,,,,0.658,0.674,0.662,0.646,0.58,,,,,
Calu-6,1.05,1.05,0.94,0.921,0.835,0.946,0.877,0.862,0.853,0.659,,,,,,1.05,0.873,0.501,0.381,0.164
ChaGo-K-1,,,,,,0.998,0.894,0.992,0.857,0.612,0.49,0.453,0.565,0.499,0.321,,,,,
